# Laboratory results taken from paper PMC3166964 (Biophysical chemistry, 2011).
# Target: T1, caspase-3(D9A,D28A) (Homo sapiens, UniProt P42574, D28A/D9A)
# T1 sequence (P42574 1-175 D9A/D28A limits assumed): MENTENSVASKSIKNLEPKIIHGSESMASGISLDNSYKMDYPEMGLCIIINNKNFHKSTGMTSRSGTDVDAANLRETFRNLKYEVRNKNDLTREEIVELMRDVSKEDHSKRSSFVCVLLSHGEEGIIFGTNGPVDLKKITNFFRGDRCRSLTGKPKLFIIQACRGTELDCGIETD
# T1 sequence (P42574 176-277 limits assumed): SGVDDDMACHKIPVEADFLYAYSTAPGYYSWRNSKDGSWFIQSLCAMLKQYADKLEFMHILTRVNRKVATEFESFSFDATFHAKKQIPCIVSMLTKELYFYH
# Experiment: isothermal titration calorimetry
# Type: binding
smiles,measurement,value
"CCN(CC)S(=O)(=O)c1ccc(-c2ccc(S(=O)(=O)N(CC)CC)s2)s1 [compound 42, N2,N2-diethyl-5-{5-[(diethylamino)sulfonyl]-2-thienyl}thiophene-2-sulfonamide]",Kd,~4 µM
